Measurements taken from ChEMBL document CHEMBL1149446, “Synthesis and antiprotozoal activity of some new synthetic substituted quinoxalines” (Bioorg Med Chem Lett, 2006).

Assays:
Leishmania donovani = test: Antiprotozoal activity against Leishmania donovani MHOM/ET/L82/LV9; assay type: functional, organism-based
[1] = tested on: Trypanosoma brucei brucei; test: Antiprotozoal activity against Trypanosoma brucei brucei GVR35; assay type: functional
Trichomonas vaginalis = test: Antiprotozoal activity against Trichomonas vaginalis CMP; assay type: functional, organism-based

Row | Compound | IC50 (Leishmania donovani) [µM] | IC50 (Trichomonas vaginalis) [µM] | MAC [1] [µM]
1 | CCCCCCCCCCCCCCCCOP(=O)([O-])OCC[N+](C)(C)C [MILTEFOSINE] | 7.3 |  | 
2 | c1cnc2cc(NCc3ccc4c(c3)OCO4)ccc2n1 | 79.5 | > 300 | >300
3 | CCCCCNc1ccc2nccnc2c1 | 46.3 | 243 | >300
4 | CCCCCCCCCCCCCCCC(=O)Nc1ccc2nc(C)c(C)nc2c1 | > 300 | > 300 | >300
5 | O=C(Nc1ccc2nccnc2c1)c1ccc(Br)o1 | > 300 | > 300 | >300
6 | CCCCCCC(=O)Nc1ccc2nccnc2c1Br | > 300 | > 300 | >300
7 | O=C(Nc1cccc2c1oc1ccccc12)c1ccc2nc(-c3ccccc3)c(-c3ccccc3)nc2c1 | > 300 | > 300 | >300
8 | COc1cc2oc3ccccc3c2cc1N(C(=O)c1ccc2nc(-c3ccccc3)c(-c3ccccc3)nc2c1)C(=O)c1ccc2nc(-c3ccccc3)c(-c3ccccc3)nc2c1 | > 300 | > 300 | >300
9 | Cc1nc2ccc(NC(=O)C34CC5CC(CC(C5)C3)C4)cc2nc1C | > 300 | > 300 | >300
10 | CCCCCCC(=O)Nc1ccc2nccnc2c1 | 117 | > 300 | >300
11 | Cc1ncc([N+](=O)[O-])n1CCO [METRONIDAZOLE] |  | 5.8 | 
12 | CCCCCCCCCCCCCCCC(=O)Nc1ccc2nccnc2c1Br | > 300 | > 300 | >300
13 | COc1cc2oc3ccccc3c2cc1NC(=O)c1ccc2nc(-c3ccccc3)c(-c3ccccc3)nc2c1 | > 300 | > 300 | >300
14 | Nc1nc(N)nc(Nc2ccc([As]3SCC(CO)S3)cc2)n1 (stereo not given) [MELARSOPROL] |  |  | 0.1
15 | CCn1c2ccccc2c2cc(NC(=O)c3ccc4nc(-c5ccccc5)c(-c5ccccc5)nc4c3)ccc21 | > 300 | > 300 | >300
16 | CCCCCCCCCCCCC(=O)Nc1ccc2nccnc2c1Br | > 300 | > 300 | >300
17 | CCn1c2ccccc2c2cc(N(C(=O)c3ccc4nc(-c5ccccc5)c(-c5ccccc5)nc4c3)C(=O)c3ccc4nc(-c5ccccc5)c(-c5ccccc5)nc4c3)ccc21 | > 300 | > 300 | >300

Now from value to molecule, other results behind:

Row | IC50 (Leishmania donovani) [µM] | IC50 (Trichomonas vaginalis) [µM] | Compound | MAC [1] [µM]
18 | 8.2 | > 300 | CCc1ccc(OCc2ccccc2C(=O)Nc2ccc3nc(C)c(C)nc3c2)cc1 | 200
19 | 18.5 | 126 | CCc1ccc(OCc2ccccc2C(=O)Nc2ccc3nccnc3c2)cc1 | 150
20 | 12.5 | > 300 | CCc1ccc(OCc2ccccc2C(=O)Nc2ccc3nc(C)cnc3c2)cc1 | 200
21 | > 300 | > 300 | O=C(Nc1ccc2nccnc2c1Br)c1ccc(C(=O)c2ccccc2)cc1 | >300
22 | 92.4 | 264 | c1ccc(CNc2ccc3nccnc3c2)cc1 | >300
23 | > 300 | > 300 | COc1cc2oc3ccccc3c2cc1NC(=O)c1ccc2nccnc2c1 | >300
24 | > 300 | > 300 | CCc1ccc(OCc2ccccc2C(=O)Nc2ccc3nc(-c4ccccc4)c(-c4ccccc4)nc3c2)cc1 | >300
25 | 34 | > 300 | c1ccc2c(CNc3ccc4nccnc4c3)ccnc2c1 | >300
26 | > 300 | > 300 | CCc1ccc(OCc2ccccc2NC(=O)c2ccc3nc(-c4ccccc4)c(-c4ccccc4)nc3c2)cc1 | >300
27 | > 300 | > 300 | CCc1ccc(OCc2ccccc2NC(=O)c2ccc3nc(C)c(C)nc3c2)cc1 | >300
28 | > 300 | > 300 | CCn1c2ccccc2c2cc(NC(=O)c3ccc4nccnc4c3)ccc21 | 200
29 | > 300 | > 300 | CCc1ccc(OCc2ccccc2NC(=O)c2ccc3nc(C)cnc3c2)cc1 | >300
30 | > 300 | 191 | O=[N+]([O-])c1ccc(CNc2ccc3nccnc3c2)cc1 | >300
31 | 18.4 | > 300 | CCc1ccc(OCc2ccccc2NC(=O)c2ccc3nccnc3c2)cc1 | 200
32 | > 300 | > 300 | O=C(Nc1ccc2nccnc2c1Br)c1ccc2ccccc2n1 | >300
